Columns and labels:
Type in all cases: in vivo
[1] = test system: ducksalad (Heteranthera limosa); assay: Test C flooded paddy test: ducksalad; details: scale 0 to 100 (0 no effect, 100 complete control)
Method in brief: (§1)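 Visual ratings from 0 (no effect) to 100 (complete control), made against untreated controls 13 to 15 days after treatment, express plant response. Compounds went directly into paddy water over 2-leaf stage plants in pots flooded to 3 cm.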

rice (Oryza sativa) = assay: Test C flooded paddy test: rice; details: scale 0 to 100 (0 no effect, 100 complete control)
Method in brief: as §1

[2] = test system: morningglory (Ipomoea spp.); assay: Test A pre-/postemergence: morningglory
Method in brief: (§2)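 Whole-plant greenhouse assay in loam/sand. Preemergence directed soil spray plus simultaneous postemergence spray (one- to two-leaf stage, 2–10 cm). Rated visually ~10 days later, 0 = no effect, 100 = complete control.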

[3] = test system: wheat (Triticum aestivum); assay: Test A pre-/postemergence: wheat
Method in brief: as §2

[4] = test system: foxtail, giant (giant foxtail, Setaria faberii); assay: Test A pre-/postemergence: foxtail, giant
Method in brief: as §2

[5] = test system: barnyardgrass (Echinochloa crus-galli); assay: Test C flooded paddy test: barnyardgrass; details: scale 0 to 100 (0 no effect, 100 complete control)
Method in brief: as §1

[6] = test system: pigweed (Amaranthus retroflexus); assay: Test A pre-/postemergence: pigweed
Method in brief: as §2

[7] = test system: barnyardgrass (Echinochloa crus-galli); assay: Test A pre-/postemergence: barnyardgrass
Method in brief: as §2

[8] = test system: sedge, umbrella (small-flower umbrella sedge, Cyperus difformis); assay: Test C flooded paddy test: sedge, umbrella; details: scale 0 to 100 (0 no effect, 100 complete control)
Method in brief: as §1

[9] = test system: crabgrass, large (large crabgrass, Digitaria sanguinalis); assay: Test A pre-/postemergence: crabgrass, large
Method in brief: as §2

[10] = test system: velvetleaf (Abutilon theophrasti); assay: Test A pre-/postemergence: velvetleaf
Method in brief: as §2

corn (Zea mays) = assay: Test A pre-/postemergence: corn
Method in brief: as §2

[11] = Flood (flooded paddy test), 125 g ai/ha, visual rating after 13 to 15 days
[12] = Flood (flooded paddy test), 250 g ai/ha, visual rating after 13 to 15 days
[13] = Postemergence, 125 g ai/ha, 0 to 100 scale, 0 is no effect, 100 is complete control
[14] = Postemergence, 500 g ai/ha, visual rating on 0 to 100 scale (0 no effect, 100 complete control), approximately ten days
[15] = Preemergence, 125 g ai/ha, 0 to 100 scale (0 no effect, 100 complete control)
[16] = Preemergence, 500 g ai/ha, 0 to 100 scale, 0 is no effect, 100 is complete control
[17] = Postemergence, 1000 g ai/ha, visual rating on 0 to 100 scale (0 no effect, 100 complete control), approximately ten days
[18] = Preemergence, 1000 g ai/ha, 0 to 100 scale, 0 is no effect, 100 is complete control

Cc1nn(-c2ccc(C(F)(F)F)cc2)nc1Oc1cccc(Cl)c1 [Compound 84]
Plant response rating, Ducksalad [1, 11]: 0
Plant response rating, Ducksalad [1, 12]: 40
Plant response rating, Ducksalad ([1]; Flood, 31 g ai/ha): 0
Plant response rating, Ducksalad ([1]; Flood, 62 g ai/ha): 0
Plant response rating, Rice (rice (Oryza sativa); [11]): 20
Plant response rating, Rice (rice (Oryza sativa); [12]): 20
Plant response rating, Rice (rice (Oryza sativa); Flood, 31 g ai/ha): 0
Plant response rating, Rice (rice (Oryza sativa); Flood, 62 g ai/ha): 0
Morningglory plant response rating [2, 13]: 30
Morningglory plant response rating [2, 14]: 30
Plant response rating, Morningglory [2, 15]: 0
Plant response rating, Morningglory [2, 16]: 0
Wheat plant response rating [3, 13]: 0
Wheat plant response rating [3, 14]: 0
Plant response rating, Wheat [3, 15]: 0
Plant response rating, Wheat [3, 16]: 0
Foxtail, Giant plant response rating [4, 13]: 10
Foxtail, Giant plant response rating [4, 14]: 20
Plant response rating, Foxtail, Giant [4, 15]: 0
Plant response rating, Foxtail, Giant [4, 16]: 30
Plant response rating, Barnyardgrass [5, 11]: 0
Plant response rating, Barnyardgrass [5, 12]: 10
Plant response rating, Barnyardgrass ([5]; Flood, 31 g ai/ha): 0
Plant response rating, Barnyardgrass ([5]; Flood, 62 g ai/ha): 0
Pigweed plant response rating [6, 13]: 40
Pigweed plant response rating [6, 14]: 90
Plant response rating, Pigweed [6, 15]: 0
Plant response rating, Pigweed [6, 16]: 50
Barnyardgrass plant response rating [7, 13]: 0
Barnyardgrass plant response rating [7, 14]: 10
Plant response rating, Barnyardgrass [7, 15]: 0
Plant response rating, Barnyardgrass [7, 16]: 0
Plant response rating, Sedge, Umbrella [8, 11]: 0
Plant response rating, Sedge, Umbrella [8, 12]: 20
Plant response rating, Sedge, Umbrella ([8]; Flood, 31 g ai/ha): 0
Plant response rating, Sedge, Umbrella ([8]; Flood, 62 g ai/ha): 0
Crabgrass, Large plant response rating [9, 13]: 10
Crabgrass, Large plant response rating [9, 14]: 50
Plant response rating, Crabgrass, Large [9, 15]: 0
Plant response rating, Crabgrass, Large [9, 16]: 60
Velvetleaf plant response rating [10, 13]: 10
Velvetleaf plant response rating [10, 14]: 20
Plant response rating, Velvetleaf [10, 15]: 0
Plant response rating, Velvetleaf [10, 16]: 0
Corn plant response rating (corn (Zea mays); [13]): 10
Corn plant response rating (corn (Zea mays); [14]): 30
Plant response rating, Corn (corn (Zea mays); [15]): 0
Plant response rating, Corn (corn (Zea mays); [16]): 0

Cc1nn(-c2ccc(C(F)(F)F)cc2)nc1Sc1cccc(C(F)(F)F)c1 [Compound 88]
Plant response rating, Ducksalad [1, 11]: 0
Plant response rating, Ducksalad [1, 12]: 0
Plant response rating, Ducksalad ([1]; Flood, 31 g ai/ha): 0
Plant response rating, Ducksalad ([1]; Flood, 62 g ai/ha): 0
Plant response rating, Rice (rice (Oryza sativa); [11]): 0
Plant response rating, Rice (rice (Oryza sativa); [12]): 0
Plant response rating, Rice (rice (Oryza sativa); Flood, 31 g ai/ha): 0
Plant response rating, Rice (rice (Oryza sativa); Flood, 62 g ai/ha): 0
Morningglory plant response rating [2, 13]: 10
Morningglory plant response rating [2, 14]: 50
Plant response rating, Morningglory [2, 15]: 0
Plant response rating, Morningglory [2, 16]: 0
Wheat plant response rating [3, 13]: 0
Wheat plant response rating [3, 14]: 10
Plant response rating, Wheat [3, 15]: 0
Plant response rating, Wheat [3, 16]: 0
Foxtail, Giant plant response rating [4, 13]: 10
Foxtail, Giant plant response rating [4, 14]: 40
Plant response rating, Foxtail, Giant [4, 15]: 0
Plant response rating, Foxtail, Giant [4, 16]: 40
Plant response rating, Barnyardgrass [5, 11]: 0
Plant response rating, Barnyardgrass [5, 12]: 0
Plant response rating, Barnyardgrass ([5]; Flood, 31 g ai/ha): 0
Plant response rating, Barnyardgrass ([5]; Flood, 62 g ai/ha): 0
Pigweed plant response rating [6, 13]: 80
Pigweed plant response rating [6, 14]: 100
Plant response rating, Pigweed [6, 15]: 0
Plant response rating, Pigweed [6, 16]: 50
Barnyardgrass plant response rating [7, 13]: 10
Barnyardgrass plant response rating [7, 14]: 20
Plant response rating, Barnyardgrass [7, 15]: 0
Plant response rating, Barnyardgrass [7, 16]: 10
Plant response rating, Sedge, Umbrella [8, 11]: 0
Plant response rating, Sedge, Umbrella [8, 12]: 0
Plant response rating, Sedge, Umbrella ([8]; Flood, 31 g ai/ha): 0
Plant response rating, Sedge, Umbrella ([8]; Flood, 62 g ai/ha): 0
Crabgrass, Large plant response rating [9, 13]: 30
Crabgrass, Large plant response rating [9, 14]: 80
Plant response rating, Crabgrass, Large [9, 15]: 0
Plant response rating, Crabgrass, Large [9, 16]: 50
Velvetleaf plant response rating [10, 13]: 10
Velvetleaf plant response rating [10, 14]: 80
Plant response rating, Velvetleaf [10, 15]: 0
Plant response rating, Velvetleaf [10, 16]: 0
Corn plant response rating (corn (Zea mays); [13]): 0
Corn plant response rating (corn (Zea mays); [14]): 10
Plant response rating, Corn (corn (Zea mays); [15]): 0
Plant response rating, Corn (corn (Zea mays); [16]): 0

Cc1nn(-c2ccc(F)cc2)nc1Cn1cnc(C(F)(F)F)n1 [Compound 94]
Plant response rating, Ducksalad [1, 11]: 40
Plant response rating, Ducksalad [1, 12]: 60
Plant response rating, Ducksalad ([1]; Flood, 31 g ai/ha): 0
Plant response rating, Ducksalad ([1]; Flood, 62 g ai/ha): 0
Plant response rating, Rice (rice (Oryza sativa); [11]): 0
Plant response rating, Rice (rice (Oryza sativa); [12]): 0
Plant response rating, Rice (rice (Oryza sativa); Flood, 31 g ai/ha): 0
Plant response rating, Rice (rice (Oryza sativa); Flood, 62 g ai/ha): 0
Morningglory plant response rating [2, 17]: 100
Morningglory plant response rating [2, 18]: 60
Wheat plant response rating [3, 17]: 30
Wheat plant response rating [3, 18]: 0
Foxtail, Giant plant response rating [4, 17]: 70
Foxtail, Giant plant response rating [4, 18]: 100
Plant response rating, Barnyardgrass [5, 11]: 0
Plant response rating, Barnyardgrass [5, 12]: 0
Plant response rating, Barnyardgrass ([5]; Flood, 31 g ai/ha): 0
Plant response rating, Barnyardgrass ([5]; Flood, 62 g ai/ha): 0
Pigweed plant response rating [6, 17]: 100
Pigweed plant response rating [6, 18]: 100
Barnyardgrass plant response rating [7, 17]: 40
Barnyardgrass plant response rating [7, 18]: 70
Plant response rating, Sedge, Umbrella [8, 11]: 60
Plant response rating, Sedge, Umbrella [8, 12]: 75
Plant response rating, Sedge, Umbrella ([8]; Flood, 31 g ai/ha): 0
Plant response rating, Sedge, Umbrella ([8]; Flood, 62 g ai/ha): 50
Crabgrass, Large plant response rating [9, 17]: 80
Crabgrass, Large plant response rating [9, 18]: 100
Velvetleaf plant response rating [10, 17]: 80
Velvetleaf plant response rating [10, 18]: 20
Corn plant response rating (corn (Zea mays); [17]): 40
Corn plant response rating (corn (Zea mays); [18]): 0

Cc1nn(-c2ccc(F)cc2)nc1Cn1ccc(C(F)(F)F)n1 [Compound 95]
Plant response rating, Ducksalad [1, 12]: 0
Plant response rating, Ducksalad ([1]; Flood, 62 g ai/ha): 0
Plant response rating, Rice (rice (Oryza sativa); [12]): 0
Plant response rating, Rice (rice (Oryza sativa); Flood, 62 g ai/ha): 0
Morningglory plant response rating [2, 17]: 60
Morningglory plant response rating [2, 18]: 0
Wheat plant response rating [3, 17]: 0
Wheat plant response rating [3, 18]: 0
Foxtail, Giant plant response rating [4, 17]: 60
Foxtail, Giant plant response rating [4, 18]: 100
Plant response rating, Barnyardgrass [5, 12]: 0
Plant response rating, Barnyardgrass ([5]; Flood, 62 g ai/ha): 0
Pigweed plant response rating [6, 17]: 100
Pigweed plant response rating [6, 18]: 90
Barnyardgrass plant response rating [7, 17]: 60
Barnyardgrass plant response rating [7, 18]: 50
Plant response rating, Sedge, Umbrella [8, 12]: 0
Plant response rating, Sedge, Umbrella ([8]; Flood, 62 g ai/ha): 0
Crabgrass, Large plant response rating [9, 17]: 80
Crabgrass, Large plant response rating [9, 18]: 100
Velvetleaf plant response rating [10, 17]: 70
Velvetleaf plant response rating [10, 18]: 40
Corn plant response rating (corn (Zea mays); [17]): 30
Corn plant response rating (corn (Zea mays); [18]): 10

Cc1nn(-c2ccc(C(F)(F)F)cc2)nc1Cn1cnc(C(F)(F)F)c1 [Compound 96]
Plant response rating, Ducksalad [1, 12]: 50
Plant response rating, Ducksalad ([1]; Flood, 62 g ai/ha): 40
Plant response rating, Rice (rice (Oryza sativa); [12]): 0
Plant response rating, Rice (rice (Oryza sativa); Flood, 62 g ai/ha): 0
Morningglory plant response rating [2, 17]: 80
Morningglory plant response rating [2, 18]: 40
Wheat plant response rating [3, 17]: 30
Wheat plant response rating [3, 18]: 0
Foxtail, Giant plant response rating [4, 17]: 60
Foxtail, Giant plant response rating [4, 18]: 90
Plant response rating, Barnyardgrass [5, 12]: 10
Plant response rating, Barnyardgrass ([5]; Flood, 62 g ai/ha): 10
Pigweed plant response rating [6, 17]: 90
Pigweed plant response rating [6, 18]: 100
Barnyardgrass plant response rating [7, 17]: 40
Barnyardgrass plant response rating [7, 18]: 70
Plant response rating, Sedge, Umbrella [8, 12]: 80
Plant response rating, Sedge, Umbrella ([8]; Flood, 62 g ai/ha): 75
Crabgrass, Large plant response rating [9, 17]: 70
Crabgrass, Large plant response rating [9, 18]: 100
Velvetleaf plant response rating [10, 17]: 70
Velvetleaf plant response rating [10, 18]: 0
Corn plant response rating (corn (Zea mays); [17]): 30
Corn plant response rating (corn (Zea mays); [18]): 0
